From patent US8741897B2, “Glucocorticoid mimetics, methods of making them, pharmaceutical compositions and uses thereof” (Boehringer Ingelheim Pharmaceuticals Inc., priority 2003, dated 2014)

System: glucocorticoid receptor function
Test: one or more of the above assays (GR binding and glucocorticoid receptor cell assays: aromatase, IL-6, TAT, MMTV-Luc, IL-8, ICAM-Luc)
Format: cell-based
Details: assay not specified per compound

SMILES	activity as agonists of the glucocorticoid receptor function in one or more of the above assays
Cc1cc(C#N)cc2[nH]c(CC(O)(CC(C)(C)c3cc(S(C)(=O)=O)cc4c3OCC4)C(F)F)cc12 (stereo not drawn) [2-[2-Difluoromethyl-2-hydroxy-4-(5-methanesulfonyl-2,3-dihydrobenzofuran-7-yl)-4-methylpentyl]-4-methyl-1H-indole-6-carbonitrile]	agonists
COc1cc(F)ccc1C(C)(C)CC(O)(Cc1cc2c(C)nccc2[nH]1)C(F)(F)F (stereo not drawn) [1,1,1-Trifluoro-4-(4-fluoro-2-methoxyphenyl)-4-methyl-2-(4-methyl-1H-pyrrolo[3,2-c]pyridin-2-ylmethyl)pentan-2-ol]	potent agonists
Cc1cccc2[nH]c(CC(O)(CC(C)(C)c3cc(S(C)(=O)=O)cc4c3OCC4)C(F)(F)F)cc12 (stereo not drawn) [1,1,1-Trifluoro-4-(5-methanesulfonyl-2,3-dihydrobenzofuran-7-yl)-4-methyl-2-(4-methyl-1H-indol-2-ylmethyl)pentan-2-ol]	potent agonists
CN(C)c1cc2cc(CC(O)(CC(C)(C)c3ccc(F)cc3O)C(F)(F)F)[nH]c2cn1 (stereo not drawn) [2-[3-(5-Dimethylamino-1H-pyrrolo[2,3-c]pyridin-2-ylmethyl)-4,4,4-trifluoro-3-hydroxy-1,1-dimethylbutyl]-5-fluorophenol]	potent agonists
COc1ccc(-c2cccnc2)cc1C(C)(C)CC(O)(Cc1[nH]c2cnccc2c1C)C(F)(F)F (stereo not drawn) [1,1,1-Trifluoro-4-(2-methoxy-5-pyridin-3-ylphenyl)-4-methyl-2-(3-methyl-1H-pyrrolo[2,3-c]pyridin-2-ylmethyl)pentan-2-ol]	potent agonists
CC(C)(CC(O)(Cc1cc2cc(N3CCOCC3)ncc2[nH]1)C(F)(F)F)c1cc(-c2ccccc2C#N)ccc1O (stereo not drawn) [4′-Hydroxy-3′-[4,4,4-trifluoro-3-hydroxy-1,1-dimethyl-3-(5-morpholin-4-yl-1H-pyrrolo[2,3-c]pyridin-2-ylmethyl)butyl]biphenyl-2-carbonitrile]	potent agonists
CC(C)(CC(O)(Cc1cc2cc(Cl)ncc2[nH]1)C(F)(F)F)c1cc(Cl)cc2c1OCC2 (stereo not drawn) [4-(5-Chloro-2,3-dihydrobenzofuran-7-yl)-2-(5-chloro-1H-pyrrolo[2,3-c]pyridin-2-ylmethyl)-1,1,1-trifluoro-4-methylpentan-2-ol]	potent agonists
CC(C)(CC(O)(Cc1cc2cc(N3CCCCC3)ncc2[nH]1)C(F)(F)F)c1ccccc1 (stereo not drawn) [1,1,1-Trifluoro-4-methyl-4-phenyl-2-(5-piperidin-1-yl-1H-pyrrolo[2,3-c]pyridin-2-ylmethyl)pentan-2-ol]	potent agonists
Cc1ccc(F)cc1C(C)(C)CC(O)(Cc1cc2ccncc2[nH]1)C(C)(C)C (stereo not drawn) [5-(5-Fluoro-2-methylphenyl)-2,2,5-trimethyl-3-(1H-pyrrolo[2,3-c]pyridin-2-ylmethyl)hexan-3-ol]	agonists
Cc1ccc(F)cc1C(C)(C)CC(O)(Cc1cc2cc(-c3ccccc3)nnc2[nH]1)C(F)(F)F (stereo not drawn)	potent agonists
Cc1ccc(F)cc1C(C)(C)CC(O)(Cc1cc2c(C)cncc2[nH]1)C(F)(F)F (stereo not drawn) [1,1,1-Trifluoro-4-(5-fluoro-2-methylphenyl)-4-methyl-2-(4-methyl-1H-pyrrolo[2,3-c]pyridin-2-ylmethyl)pentan-2-ol]	potent agonists
COc1ccc(F)cc1C(C)(C)CC(O)(Cc1cc2ccncc2[nH]1)C(C)(C)C (stereo not drawn) [5-(5-Fluoro-2-methoxyphenyl)-2,2,5-trimethyl-3-(1H-pyrrolo[2,3-c]pyridin-2-ylmethyl)hexan-3-ol]	agonists
COc1ccc(-c2ccsc2)cc1C(C)(C)CC(O)(Cc1cc2cc(Cl)ncc2[nH]1)C(F)(F)F (stereo not drawn) [2-(5-Chloro-1H-pyrrolo[2,3-c]pyridin-2-ylmethyl)-1,1,1-trifluoro-4-(2-methoxy-5-thiophen-3-ylphenyl)-4-methylpentan-2-ol]	potent agonists
CC(C)(CC(O)(Cc1cc2cc(Cl)ncc2[nH]1)C(F)(F)F)c1cc(F)ccc1O (stereo not drawn) [2-[3-(5-Chloro-1H-pyrrolo[2,3-c]pyridin-2-ylmethyl)-4,4,4-trifluoro-3-hydroxy-1,1-dimethylbutyl]-4-fluorophenol]	potent agonists
CN1C=CC2=CC(CC(O)(CC(C)(C)c3cc(Cl)cc4c3OCC4)C(F)(F)F)NC2=C1 (stereo not drawn) [4-(5-Chloro-2,3-dihydrobenzofuran-7-yl)-1,1,1-trifluoro-4-methyl-2-(6-methyl-1H-pyrrolo[2,3-c]pyridin-2-ylmethyl)pentan-2-ol]	potent agonists
CC(C)(CC(O)(Cc1cc2cc(N3CCOCC3)ncc2[nH]1)C(F)(F)F)c1ccc(F)cc1 (stereo not drawn) [1,1,1-Trifluoro-4-(4-fluorophenyl)-4-methyl-2-(5-morpholin-4-yl-1H-pyrrolo[2,3-c]pyridin-2-ylmethyl)pentan-2-ol]	potent agonists
CC(C)(CC(O)(Cc1cc2ncncc2[nH]1)C(F)(F)F)c1cc(F)ccc1O (stereo not drawn) [4-Fluoro-2-[4,4,4-trifluoro-3-hydroxy-1,1-dimethyl-3-(5H-pyrrolo[3,2-d]pyrimidin-6-ylmethyl)butyl]phenol]	potent agonists
COc1ccc(F)cc1C(C)(C)CC(O)(Cc1cc2c(C#N)cccc2[nH]1)C(F)(F)F (stereo not drawn) [2-[4-(5-Fluoro-2-methoxyphenyl)-2-hydroxy-4-methyl-2-trifluoromethylpentyl]-1H-indole-4-carbonitrile]	potent agonists
COc1ccc(-c2cncnc2)cc1C(C)(C)CC(O)(Cn1ccc2c1CCCC2=O)C(F)(F)F (stereo not drawn) [1-[2-Hydroxy-4-(2-methoxy-5-pyrimidin-5-ylphenyl)-4-methyl-2-trifluoromethylpentyl]-1,5,6,7-tetrahydroindol-4-one]	agonists
Cc1ccc(F)cc1C(C)(C)CC(O)(Cc1cc2cc(N3CCCC3)ncc2[nH]1)C(F)(F)F (stereo not drawn) [1,1,1-Trifluoro-4-(5-fluoro-2-methylphenyl)-4-methyl-2-(5-pyrrolidin-1-yl-1H-pyrrolo[2,3-c]pyridin-2-ylmethyl)pentan-2-ol]	potent agonists
COc1ccc(Br)cc1C(C)(C)CC(O)(Cc1cc2cc(N3CCOCC3)ncc2[nH]1)C(F)(F)F (stereo not drawn) [4-(5-Bromo-2-methoxyphenyl)-1,1,1-trifluoro-4-methyl-2-(5-morpholin-4-yl-1H-pyrrolo[2,3-c]pyridin-2-ylmethyl)pentan-2-ol]	potent agonists
Cc1ccc(F)cc1C(C)(C)CC(O)(Cc1cc2cc(N(C)C(C)C)ncc2[nH]1)C(F)(F)F (stereo not drawn) [1,1,1-Trifluoro-4-(5-fluoro-2-methylphenyl)-2-[5-(isopropylmethylamino)-1H-pyrrolo[2,3-c]pyridin-2-ylmethyl]-4-methylpentan-2-ol]	potent agonists
CC(C)(CC(O)(Cc1cc2nnccc2[nH]1)C(F)(F)F)c1cc(F)ccc1O (stereo not drawn) [4-Fluoro-2-[4,4,4-trifluoro-3-hydroxy-1,1-dimethyl-3-(5H-pyrrolo[3,2-c]pyridazin-6-ylmethyl)butyl]phenol]	potent agonists
CC(C)(CC(O)(Cc1cc2nc(CN)ccc2[nH]1)C(F)(F)F)c1cc(Cl)cc2c1OCC2 (stereo not drawn) [2-(5-Aminomethyl-1H-pyrrolo[3,2-b]pyridin-2-ylmethyl)-4-(5-chloro-2,3-dihydrobenzofuran-7-yl)-1,1,1-trifluoro-4-methylpentan-2-ol]	potent agonists
Cc1nc(C#N)cc2[nH]c(CC(O)(CC(C)(C)c3cc(S(C)(=O)=O)cc4c3OCC4)C(F)(F)F)cc12 (stereo not drawn) [2-[2-Hydroxy-4-(5-methanesulfonyl-2,3-dihydrobenzofuran-7-yl)-4-methyl-2-trifluoromethylpentyl]-4-methyl-1H-pyrrolo[3,2-c]pyridine-6-carbonitrile]	potent agonists
COc1ccc(-c2cccc3ccccc23)cc1C(C)(C)CC(O)(Cc1cc2cc(N3CCOCC3)ncc2[nH]1)C(F)(F)F (stereo not drawn) [1,1,1-Trifluoro-4-(2-methoxy-5-naphthalen-1-ylphenyl)-4-methyl-2-(5-morpholin-4-yl-1H-pyrrolo[2,3-c]pyridin-2-ylmethyl)pentan-2-ol]	potent agonists
CC(C)Oc1cc2cc(CC(O)(CC(C)(C)c3cc(F)ccc3C(F)(F)F)C(F)(F)F)[nH]c2cn1 (stereo not drawn) [1,1,1-Trifluoro-4-(5-fluoro-2-trifluoromethylphenyl)-2-(5-isopropoxy-1H-pyrrolo[2,3-c]pyridin-2-ylmethyl)-4-methylpentan-2-ol]	potent agonists
COc1ccc(-c2cncnc2)cc1C(C)(C)CC(O)(Cc1cc2cc(O)ncc2[nH]1)C(F)(F)F (stereo not drawn) [2-[2-Hydroxy-4-(2-methoxy-5-pyrimidin-5-ylphenyl)-4-methyl-2-trifluoromethylpentyl]-1H-pyrrolo[2,3-c]pyridin-5-ol]	potent agonists
CC(C)(CC(O)(Cc1cc2cc(N3CCOCC3)ncc2[nH]1)C(F)(F)F)c1ccccc1 (stereo not drawn) [1,1,1-Trifluoro-4-methyl-2-(5-morpholin-4-yl-1H-pyrrolo[2,3-c]pyridin-2-ylmethyl)-4-phenylpentan-2-ol]	potent agonists
CCC(=O)c1ccc2[nH]c(CC(O)(CC(C)(C)c3cc(Cl)cc4c3OCC4)C(F)(F)F)cc2n1 (stereo not drawn) [1-{2-[4-(5-Chloro-2,3-dihydrobenzofuran-7-yl)-2-hydroxy-4-methyl-2-trifluoromethylpentyl]-1H-pyrrolo[3,2-b]pyridin-5-yl}propan-1-one]	potent agonists
